Patent publication US9452196B2, “Pharmaceutical composition for treating medical conditions and a method for treating alimentary disorders and related diseases” (SOCIEDADE BENEFICENTE DE SENHORAS HOSPITAL SIRIO LIBANES, priority 2009, dated 2016)
Where two headings read alike, the source gives them in different places.

Assays:
2A neural cells = assay: growth of neurites in 2A neural cells; format: cell-based; conditions: FIG. 3D; for basal growth of neurites: substance alone
CB1 receptor [1] = biological target: T1, CB1 receptor (Homo sapiens, UniProt P21554); format: biochemical; conditions: for percentage of activity as compared to the control group: CB1
From the text: (§1) Next the selectivity of hemopressin for CB1 receptors was examined using antibodies sensitive to the conformations of mu and delta opiod receptors, alpha-2A and beta-2 adrenergic receptors, as well as type 1 and 2 Angiotensin II receptors.

male Wistar rats = assay: fat content and body weight in male Wistar rats on 63-day diet; format: in vivo, rat; conditions: once a day for three days; for Body Weight (% of Control) / Periepididymal Adipose Tissue Weight / Retroperitoneal Adipose Tissue Weight / Visceral Adipose Tissue Weight: 63-day ad libitum diet
rats [2] = assay: body weight and fat content after oral administration; format: in vivo, rat; conditions: for Body Weight (% of Control) / Periepididymal Adipose Tissue Weight / Retroperitoneal Adipose Tissue Weight / Visceral Adipose Tissue Weight: rats
CB1 receptor [3] = biological target: T1, CB1 receptor; format: biochemical
Description: A test was then designed, the results of which are illustrated in FIG. 2B, to determine if hemopressin could block the signaling of CB1 receptor. […] Finally, a test was designed to measure whether hemopressin is capable of blocking the increase of levels of phosphorylated ERK1 and ERK2.
Hemopressin was also determined to not only act as an antagonist but as an inverse agonist of CB1 receptors. This was further explored by studying the binding of GTPgammaS, adenylate cyclase activity and MAP kinase phopshorylation. […] This can clearly be seen in FIGS. 3A-C.

CB1 receptor [4] = biological target: T1, CB1 receptor; conditions: in vitro, Dodd et al.; cited from earlier work
CB1 receptor [5] = biological target: T1, CB1 receptor; assay: displacement of the ligand rimonabant from CB1 receptors; format: binding; conditions: FIG. 2A
CB1 receptor [6] = biological target: T1, CB1 receptor; conditions: literature; cited from earlier work
diet induced obese rats = assay: insulin sensitivity in diet induced obese rats; format: in vivo, rat; conditions: 50 micrograms/Kg and 1 mg/Kg hemopressin, FIG. 6
[7] = cited from earlier work
rats [8] = assay: standard swimming test for depression; format: in vivo, rat; conditions: hemopressin 1 mg/Kg, FIG. 5
[9] = biological target: T2, type 1 Angiotensin II receptor (AT1) (Homo sapiens, UniProt P30556); assay: recognition by conformation-sensitive receptor antibody; format: biochemical
T2 sequence (P30556 1-359): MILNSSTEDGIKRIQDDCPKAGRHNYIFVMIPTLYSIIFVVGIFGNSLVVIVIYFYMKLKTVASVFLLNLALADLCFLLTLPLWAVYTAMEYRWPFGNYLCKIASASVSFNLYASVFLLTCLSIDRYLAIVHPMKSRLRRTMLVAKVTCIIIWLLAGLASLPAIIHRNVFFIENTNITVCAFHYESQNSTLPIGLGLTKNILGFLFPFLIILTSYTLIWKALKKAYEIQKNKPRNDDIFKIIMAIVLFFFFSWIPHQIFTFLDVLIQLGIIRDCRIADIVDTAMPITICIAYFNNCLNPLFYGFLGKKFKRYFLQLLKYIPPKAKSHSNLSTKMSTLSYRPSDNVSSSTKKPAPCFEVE
From the text: as §1, with “receptors. In the following table, it is possible to identify the specificity of the peptide hemopressin for the CB1 receptor. […] The following data presents the percentage of activity as compared to the control group: […]” for “receptors.”

mu opioid receptor = mu opioid receptor (Homo sapiens, UniProt P35372); assay: as above; format: biochemical
From the text: as §1, with “receptors. In the following table, it is possible to identify the specificity of the peptide hemopressin for the CB1 receptor. […] The following data presents the percentage of activity as compared to the control group: […]” for “receptors.”

[10] = biological target: beta-2 adrenergic receptor (Homo sapiens, UniProt P07550); assay: as above; format: biochemical
From the text: as §1, with “receptors. In the following table, it is possible to identify the specificity of the peptide hemopressin for the CB1 receptor. […] The following data presents the percentage of activity as compared to the control group: […]” for “receptors.”

[11] = biological target: T3, alpha-2A adrenergic receptor (Homo sapiens, UniProt P08913); assay: as above; format: biochemical
T3 sequence (P08913 1-465): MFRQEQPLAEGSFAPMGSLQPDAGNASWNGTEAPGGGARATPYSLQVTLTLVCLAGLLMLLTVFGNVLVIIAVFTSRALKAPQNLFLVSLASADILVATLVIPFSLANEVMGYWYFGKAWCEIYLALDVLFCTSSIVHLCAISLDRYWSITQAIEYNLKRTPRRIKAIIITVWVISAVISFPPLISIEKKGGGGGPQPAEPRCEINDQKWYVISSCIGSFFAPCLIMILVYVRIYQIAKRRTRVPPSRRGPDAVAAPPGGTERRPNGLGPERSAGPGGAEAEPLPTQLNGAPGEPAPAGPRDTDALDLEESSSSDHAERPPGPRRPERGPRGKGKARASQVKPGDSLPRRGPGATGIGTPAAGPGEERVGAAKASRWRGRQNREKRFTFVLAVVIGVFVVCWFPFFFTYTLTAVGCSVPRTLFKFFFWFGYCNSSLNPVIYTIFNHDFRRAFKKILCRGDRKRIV
From the text: as §1, with “receptors. In the following table, it is possible to identify the specificity of the peptide hemopressin for the CB1 receptor. […] The following data presents the percentage of activity as compared to the control group: […]” for “receptors.”

[12] = biological target: T4, type 2 Angiotensin II receptor (AT2) (Homo sapiens, UniProt P50052); assay: as above; format: biochemical
T4 sequence (P50052 1-363): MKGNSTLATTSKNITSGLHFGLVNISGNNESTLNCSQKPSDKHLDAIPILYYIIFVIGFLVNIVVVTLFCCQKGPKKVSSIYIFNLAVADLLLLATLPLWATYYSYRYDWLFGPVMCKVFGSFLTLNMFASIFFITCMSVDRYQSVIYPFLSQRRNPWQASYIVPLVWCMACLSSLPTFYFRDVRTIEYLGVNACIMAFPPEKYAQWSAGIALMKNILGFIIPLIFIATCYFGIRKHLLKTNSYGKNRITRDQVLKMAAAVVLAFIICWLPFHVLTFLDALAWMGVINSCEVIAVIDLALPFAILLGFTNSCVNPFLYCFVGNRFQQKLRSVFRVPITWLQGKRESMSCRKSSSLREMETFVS
From the text: as §1, with “receptors. In the following table, it is possible to identify the specificity of the peptide hemopressin for the CB1 receptor. […] The following data presents the percentage of activity as compared to the control group: […]” for “receptors.”

delta opioid receptor = delta opioid receptor (Homo sapiens, UniProt P41143); assay: as above; format: biochemical
From the text: as §1, with “receptors. In the following table, it is possible to identify the specificity of the peptide hemopressin for the CB1 receptor. […] The following data presents the percentage of activity as compared to the control group: […]” for “receptors.”

rats and mice = conditions: Dodd et al., cited from earlier work
rodents and humans = conditions: literature; cited from earlier work
male Zucker rats = assay: fat content in male Zucker rats after intraperitoneal administration; format: in vivo, rat; conditions: intraperitoneal 50 micrograms/Kg once a day for three days
Description: Experiments were also conducted on genetically obese and diet-induced rats of another species. Male Zucker rats were maintained on a 12 hour light/dark cycle. The rats were divided into two groups that receive once a day for three days either intraperiotoneal administration of 50 micrograms/Kg body weight of HPW2 or saline.

T1 sequence (P21554 whole entry): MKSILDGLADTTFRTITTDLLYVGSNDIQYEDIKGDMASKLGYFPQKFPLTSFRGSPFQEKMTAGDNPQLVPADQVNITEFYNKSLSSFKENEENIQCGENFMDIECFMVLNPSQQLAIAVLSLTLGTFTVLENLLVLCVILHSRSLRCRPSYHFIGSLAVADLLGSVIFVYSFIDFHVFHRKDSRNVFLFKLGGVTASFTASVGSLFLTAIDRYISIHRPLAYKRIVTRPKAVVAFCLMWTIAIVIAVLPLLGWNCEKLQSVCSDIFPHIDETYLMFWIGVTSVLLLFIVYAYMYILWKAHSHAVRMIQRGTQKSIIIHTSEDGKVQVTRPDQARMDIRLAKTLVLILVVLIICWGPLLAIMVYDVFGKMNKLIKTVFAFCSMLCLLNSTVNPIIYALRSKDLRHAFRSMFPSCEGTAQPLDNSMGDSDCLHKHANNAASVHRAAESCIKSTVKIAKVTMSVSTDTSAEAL
Sequence of delta opioid receptor (P41143 whole entry): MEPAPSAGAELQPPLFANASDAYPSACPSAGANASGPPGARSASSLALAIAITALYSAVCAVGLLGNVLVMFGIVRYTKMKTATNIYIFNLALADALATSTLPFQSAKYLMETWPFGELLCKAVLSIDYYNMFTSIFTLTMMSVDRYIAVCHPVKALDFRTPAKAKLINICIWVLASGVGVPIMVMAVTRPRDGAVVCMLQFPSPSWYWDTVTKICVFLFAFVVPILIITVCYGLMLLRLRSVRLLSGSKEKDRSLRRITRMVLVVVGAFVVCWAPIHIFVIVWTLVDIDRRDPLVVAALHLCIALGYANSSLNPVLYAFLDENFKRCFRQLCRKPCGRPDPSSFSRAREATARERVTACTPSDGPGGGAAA
Sequence of beta-2 adrenergic receptor (P07550 whole entry): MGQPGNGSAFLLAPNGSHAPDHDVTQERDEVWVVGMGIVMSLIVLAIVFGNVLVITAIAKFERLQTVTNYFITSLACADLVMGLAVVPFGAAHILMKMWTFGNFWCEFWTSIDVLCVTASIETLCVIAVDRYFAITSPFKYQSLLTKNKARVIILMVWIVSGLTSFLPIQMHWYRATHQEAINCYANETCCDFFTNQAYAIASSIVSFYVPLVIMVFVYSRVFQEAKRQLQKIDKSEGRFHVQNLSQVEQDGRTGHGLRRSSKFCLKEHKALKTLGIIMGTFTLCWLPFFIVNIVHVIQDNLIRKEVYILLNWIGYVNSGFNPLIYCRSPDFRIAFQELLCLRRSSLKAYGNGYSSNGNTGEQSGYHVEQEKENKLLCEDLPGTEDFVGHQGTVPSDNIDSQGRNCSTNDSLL
Sequence of mu opioid receptor (P35372 whole entry): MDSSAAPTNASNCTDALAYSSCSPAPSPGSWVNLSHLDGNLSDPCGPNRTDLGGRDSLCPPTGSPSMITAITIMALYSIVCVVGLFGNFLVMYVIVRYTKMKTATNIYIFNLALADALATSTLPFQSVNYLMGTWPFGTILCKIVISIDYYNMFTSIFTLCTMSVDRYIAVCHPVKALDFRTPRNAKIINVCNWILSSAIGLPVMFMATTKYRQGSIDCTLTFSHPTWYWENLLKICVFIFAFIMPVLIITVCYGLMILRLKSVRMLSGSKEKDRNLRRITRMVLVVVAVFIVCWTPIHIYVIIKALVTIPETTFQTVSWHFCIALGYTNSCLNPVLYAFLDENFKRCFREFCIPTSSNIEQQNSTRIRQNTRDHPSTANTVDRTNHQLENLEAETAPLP

CCCCCCC(C)(C)c1cc(O)c2c(c1)OC(C)(C)[C@@H]1CC=C(CO)C[C@@H]21 [HU-210, reference compound]
basal growth of neurites (2A neural cells): induction of the growth of neurites | recognition of a CB1 specific antibody (CB1 receptor [1]): increase

CC(C)C[C@H](NC(=O)[C@H](Cc1ccccc1)NC(=O)[C@H](CCCCN)NC(=O)[C@H](Cc1ccccc1)NC(=O)[C@H](CC(N)=O)NC(=O)[C@@H](NC(=O)C1CCCN1)C(C)C)C(=O)N[C@@H](CO)C(=O)N[C@@H](Cc1cnc[nH]1)C(=O)O (stereo partly drawn) [hemopressin]
Body Weight (% of Control) (male Wistar rats): 98.62 ± 13.33 % of Control | Periepididymal Adipose Tissue Weight (male Wistar rats): 4.77 ± 1.06 g | Retroperitoneal Adipose Tissue Weight (male Wistar rats): 6.12 ± 2.09 g | Visceral Adipose Tissue Weight (male Wistar rats): 2.77 ± 0.58 g | periepididymal and visceral fat content compared to saline control (male Wistar rats): significantly reduced periepididymal and visceral fat content | retroperitoneal fat content (rats [2]): significantly reduced by hemopressin only | total body weight and periepididymal fat content (rats [2]): significantly reduce | Body Weight (% of Control) (rats [2]): 96.89 ± 1.25 % of Control | Periepididymal Adipose Tissue Weight (rats [2]): 7.16 ± 1.36 g | Retroperitoneal Adipose Tissue Weight (rats [2]): 6.26 ± 1.62 g | Visceral Adipose Tissue Weight (rats [2]): 4.31 ± 0.61 g | growth of neurites as measured against agonists (2A neural cells): efficiently blocks the growth of neurites | basal growth of neurites (2A neural cells): capable of decreasing the basal growth of neurites | block of the increase of GTPgammaS (CB1 receptor [3]): capable of blocking the increase of GTPgammaS | block of the increase of levels of phosphorylated ERK1 and ERK2 (CB1 receptor [3]): behave similarly to rimonabant | block of decreases in cAMP levels (CB1 receptor [3]; against agonists, FIG. 2C): block decreases in cAMP levels with efficiency similar to that of rimonabant | basal signaling, binding of GTPgammaS (CB1 receptor [3]; without agonist, FIG. 3A): causes decreases in signaling below the basal levels | basal signaling, adenylate cyclase activity (CB1 receptor [3]; without agonist, FIG. 3B): causes decreases in signaling below the basal levels | basal signaling, MAP kinase phosphorylation (CB1 receptor [3]; without agonist, FIG. 3C): causes decreases in signaling below the basal levels | CB1 agonist-induced internalization of the CB1 receptor (CB1 receptor [4]): antagonize CB1 agonist-induced internalization of the CB1 receptor in vitro | displacement of rimonabant from CB1 receptors (CB1 receptor [5]): capable of displacing rimonabant from CB1 receptors | action at the CB1 receptor (CB1 receptor [6]): CB1 receptor inverse agonist | insulin sensitivity (diet induced obese rats): significantly improved insulin sensitivity | antinociceptive effects ([7]; Dale et al., literature): nonopioid antinociceptive effects | treatment of hyperalgesia ([7]; administered locally or systemically, Heimann et al.): effective in treating hyperalgesia | symptoms of depression in standard swimming test (rats [8]): showed no such symptoms | percentage of activity as compared to the control group ([9]; agonist and HP together): 140.01 ± 1.21% | percentage of activity as compared to the control group ([9]; hemopressin alone): 109.65 ± 1.31% | percentage of activity as compared to the control group (mu opioid receptor; agonist and HP together): 141.09 ± 6.46% | percentage of activity as compared to the control group (mu opioid receptor; hemopressin alone): 105.62 ± 1.09% | percentage of activity as compared to the control group ([10]; agonist and HP together): 157.40 ± 8.15% | percentage of activity as compared to the control group ([10]; hemopressin alone): 103.85 ± 9.29% | percentage of activity as compared to the control group ([11]; agonist and HP together): 130.05 ± 7.06% | percentage of activity as compared to the control group ([11]; hemopressin alone): 102.72 ± 2.00% | percentage of activity as compared to the control group ([12]; agonist and HP together): 137.10 ± 1.91% | percentage of activity as compared to the control group ([12]; hemopressin alone): 99.65 ± 4.71% | percentage of activity as compared to the control group (delta opioid receptor; agonist and HP together): 131.08 ± 3.35% | percentage of activity as compared to the control group (delta opioid receptor; hemopressin alone): 100.65 ± 4.29% | block of the HU-210 induced increase in the recognition of the antibody (CB1 receptor [1]): significantly blocked | percentage of activity as compared to the control group (CB1 receptor [1]; agonist and HP together): 102.06 ± 5.91% | percentage of activity as compared to the control group (CB1 receptor [1]; hemopressin alone): 72.30 ± 3.32% | recognition of a CB1 specific antibody (CB1 receptor [1]; substance alone, FIG. 1A/1B): decrease the recognition of a CB1 specific antibody | selectivity for CB1 receptors (CB1 receptor [1]; versus mu and delta opioid, alpha-2A, beta-2, AT1, AT2 receptors): highly selective for CB1 receptors | food intake (rats and mice; administered centrally): induce hypophagia in vivo when administered centrally | food intake (rats and mice; administered systemically): induce hypophagia in vivo when administered systemically

Cc1c(C(=O)NN2CCCCC2)nn(-c2ccc(Cl)cc2Cl)c1-c1ccc(Cl)cc1 [rimonabant, reference compound]
Body Weight (% of Control) (rats [2]): 98.92 ± 0.95 % of Control | Periepididymal Adipose Tissue Weight (rats [2]): 5.57 ± 1.03 g | Retroperitoneal Adipose Tissue Weight (rats [2]): 6.89 ± 1.31 g | Visceral Adipose Tissue Weight (rats [2]): 3.91 ± 0.78 g | growth of neurites as measured against agonists (2A neural cells): efficiently blocks the growth of neurites | weight reduction (rodents and humans): weight-reducing effects over extended periods | insulin sensitivity (diet induced obese rats): did not produce similar results | symptoms of depression in standard swimming test (rats [8]): caused the expected depression

PVNFKWLSH [HPW2]
Body Weight (% of Control) (male Wistar rats): 95.47 ± 15.44 % of Control | Periepididymal Adipose Tissue Weight (male Wistar rats): 4.01 ± 0.33 g | Retroperitoneal Adipose Tissue Weight (male Wistar rats): 5.37 ± 1.11 g | Visceral Adipose Tissue Weight (male Wistar rats): 2.63 ± 0.94 g | periepididymal and visceral fat content compared to saline control (male Wistar rats): significantly reduced periepididymal and visceral fat content | total body weight and periepididymal fat content (rats [2]): significantly reduce | Body Weight (% of Control) (rats [2]): 96.71 ± 2.03 % of Control | Periepididymal Adipose Tissue Weight (rats [2]): 7.32 ± 1.22 g | Retroperitoneal Adipose Tissue Weight (rats [2]): 7.19 ± 1.50 g | Visceral Adipose Tissue Weight (rats [2]): 4.28 ± 0.59 g | retroperitoneal fat content (male Zucker rats): significant reduction in retroperitoneal fat content | insulin sensitivity (diet induced obese rats): significantly improved insulin sensitivity

VDPENFRLLGNM (listed as Rattus sp.) [non-cannabinoid peptide, reference compound]
fat content (rats [2]): no effect | Body Weight (% of Control) (rats [2]): 100.65 ± 8.07 % of Control | Periepididymal Adipose Tissue Weight (rats [2]): 9.38 ± 0.95 g | Retroperitoneal Adipose Tissue Weight (rats [2]): 8.80 ± 1.15 g | Visceral Adipose Tissue Weight (rats [2]): 4.81 ± 1.25 g
